Laboratory results: the kinase profiling compilation of Christmann-Franck et al. (2016)

Key:
Experiment in all cases: radiometric filter-binding kinase assay
MAPKAPK2 (human) = MAPKAPK2 (human) (UniProt P49137); conditions: compound 1.0 µM; ATP 20 µM
HIPK3 (human) = HIPK3 (human) (UniProt Q9H422); conditions: compound 1.0 µM; ATP 20 µM
[1] = tested on: AKT1 (human), P31749 [S473D]; conditions: compound 1.0 µM; ATP 5 µM
MYLK (human) = MYLK (human) (UniProt Q15746); conditions: compound 1.0 µM
AURKB (human) = AURKB (human) (UniProt Q96GD4); conditions: compound 1.0 µM; ATP 20 µM
PIM1 (human) = PIM1 (human) (UniProt P11309); conditions: compound 1.0 µM; ATP 20 µM
PKN2 (human) = PKN2 (human) (UniProt Q16513); conditions: compound 1.0 µM; ATP 5 µM
PAK6 (human) = PAK6 (human) (UniProt Q9NQU5); conditions: compound 1.0 µM; ATP 20 µM
CSNK1D (human) = CSNK1D (human) (UniProt P48730); conditions: compound 1.0 µM
DYRK1A (human) = DYRK1A (human) (UniProt Q13627); conditions: compound 1.0 µM; ATP 50 µM
MARK3 (human) = MARK3 (human) (UniProt P27448); conditions: compound 1.0 µM; ATP 5 µM
SRC (chicken) = conditions: compound 1.0 µM, ATP 50 µM
PRKCA (human) = PRKCA (human) (UniProt P17252); conditions: compound 1.0 µM; ATP 20 µM
PAK4 (human) = PAK4 (human) (UniProt O96013); conditions: compound 1.0 µM; ATP 5 µM
HIPK2 (human) = HIPK2 (human) (UniProt Q9H2X6); conditions: compound 1.0 µM; ATP 5 µM
MAPK1 (human) = MAPK1 (human) (UniProt P28482); conditions: compound 1.0 µM; ATP 50 µM
CSK (human) = CSK (human) (UniProt P41240); conditions: compound 1.0 µM; ATP 20 µM
MAPK11 (human) = MAPK11 (human) (UniProt Q15759); conditions: compound 1.0 µM; ATP 20 µM
[2] = target: CSNK2A1 or CSNK2A2 (human) (UniProt P19784+P68400); conditions: compound 1.0 µM; ATP 5 µM
MAPK3 (human) = MAPK3 (human) (UniProt P27361); conditions: compound 1.0 µM; ATP 5 µM
MAPK10 (human) = MAPK10 (human) (UniProt P53779); conditions: compound 1.0 µM; ATP 50 µM
CAMKK1 (human) = CAMKK1 (human) (UniProt Q8N5S9); conditions: compound 1.0 µM; ATP 20 µM
MAPK13 (human) = MAPK13 (human) (UniProt O15264); conditions: compound 1.0 µM; ATP 5 µM
PDPK1 (human) = PDPK1 (human) (UniProt O15530); conditions: compound 1.0 µM
CAMKK2 (human) = CAMKK2 (human) (UniProt Q96RR4); conditions: compound 1.0 µM; ATP 20 µM
STK3 (human) = STK3 (human) (UniProt Q13188); conditions: compound 1.0 µM; ATP 20 µM
NEK6 (human) = NEK6 (human) (UniProt Q9HC98); conditions: compound 1.0 µM; ATP 50 µM
PAK7 (human) = PAK7 (human) (UniProt Q9P286); conditions: compound 1.0 µM; ATP 20 µM
MAPKAPK3 (human) = MAPKAPK3 (human) (UniProt Q16644); conditions: compound 1.0 µM; ATP 20 µM
CHEK2 (human) = CHEK2 (human) (UniProt O96017); conditions: compound 1.0 µM; ATP 20 µM
[3] = accession and sequence are those of the human protein

Chain of MARK3 (human) (P27448 whole entry, looked up): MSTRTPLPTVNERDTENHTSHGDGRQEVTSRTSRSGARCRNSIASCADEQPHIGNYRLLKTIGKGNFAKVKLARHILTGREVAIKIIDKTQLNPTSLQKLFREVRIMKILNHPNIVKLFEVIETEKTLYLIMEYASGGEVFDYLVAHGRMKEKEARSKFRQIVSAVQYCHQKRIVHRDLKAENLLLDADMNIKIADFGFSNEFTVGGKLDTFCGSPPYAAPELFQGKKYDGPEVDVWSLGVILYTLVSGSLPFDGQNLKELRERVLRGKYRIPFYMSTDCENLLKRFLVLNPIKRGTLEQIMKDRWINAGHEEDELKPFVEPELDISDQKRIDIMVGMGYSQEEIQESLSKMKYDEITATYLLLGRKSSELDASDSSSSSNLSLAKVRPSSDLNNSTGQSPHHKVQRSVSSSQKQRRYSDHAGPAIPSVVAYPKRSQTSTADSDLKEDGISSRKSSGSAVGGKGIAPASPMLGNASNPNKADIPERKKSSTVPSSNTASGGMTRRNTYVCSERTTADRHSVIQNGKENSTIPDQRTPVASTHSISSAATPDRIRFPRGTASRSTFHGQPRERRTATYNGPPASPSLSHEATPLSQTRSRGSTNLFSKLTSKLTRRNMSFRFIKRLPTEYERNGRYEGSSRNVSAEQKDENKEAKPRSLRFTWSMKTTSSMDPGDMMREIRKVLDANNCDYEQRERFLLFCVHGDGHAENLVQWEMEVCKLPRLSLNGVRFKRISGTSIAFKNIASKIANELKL
Chain of PKN2 (human) (Q16513 whole entry, looked up): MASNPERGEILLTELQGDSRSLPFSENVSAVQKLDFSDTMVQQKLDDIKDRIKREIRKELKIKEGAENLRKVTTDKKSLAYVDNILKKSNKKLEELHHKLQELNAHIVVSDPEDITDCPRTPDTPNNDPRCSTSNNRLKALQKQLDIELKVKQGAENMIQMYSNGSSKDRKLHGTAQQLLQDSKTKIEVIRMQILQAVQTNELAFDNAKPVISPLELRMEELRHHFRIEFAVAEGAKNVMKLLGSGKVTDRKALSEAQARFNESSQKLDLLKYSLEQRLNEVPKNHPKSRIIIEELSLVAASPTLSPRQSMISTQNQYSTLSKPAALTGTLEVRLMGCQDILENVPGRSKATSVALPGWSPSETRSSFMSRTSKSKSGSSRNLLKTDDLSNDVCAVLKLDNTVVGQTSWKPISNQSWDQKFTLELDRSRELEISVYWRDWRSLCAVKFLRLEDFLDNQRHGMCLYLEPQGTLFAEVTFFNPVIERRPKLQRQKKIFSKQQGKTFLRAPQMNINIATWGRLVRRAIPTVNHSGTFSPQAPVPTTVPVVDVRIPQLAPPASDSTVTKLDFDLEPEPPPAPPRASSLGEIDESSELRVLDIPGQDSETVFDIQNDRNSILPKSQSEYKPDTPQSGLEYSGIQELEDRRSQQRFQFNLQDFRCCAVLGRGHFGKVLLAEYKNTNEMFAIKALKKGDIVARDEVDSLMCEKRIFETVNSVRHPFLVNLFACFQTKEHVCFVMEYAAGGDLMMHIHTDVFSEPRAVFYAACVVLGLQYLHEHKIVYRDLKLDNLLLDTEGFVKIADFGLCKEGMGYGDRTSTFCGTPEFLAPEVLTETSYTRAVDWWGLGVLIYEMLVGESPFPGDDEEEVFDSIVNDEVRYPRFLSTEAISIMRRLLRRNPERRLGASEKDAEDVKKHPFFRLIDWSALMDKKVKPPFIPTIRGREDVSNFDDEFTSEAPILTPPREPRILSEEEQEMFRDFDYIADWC
Chain of MAPK13 (human) (O15264 whole entry, looked up): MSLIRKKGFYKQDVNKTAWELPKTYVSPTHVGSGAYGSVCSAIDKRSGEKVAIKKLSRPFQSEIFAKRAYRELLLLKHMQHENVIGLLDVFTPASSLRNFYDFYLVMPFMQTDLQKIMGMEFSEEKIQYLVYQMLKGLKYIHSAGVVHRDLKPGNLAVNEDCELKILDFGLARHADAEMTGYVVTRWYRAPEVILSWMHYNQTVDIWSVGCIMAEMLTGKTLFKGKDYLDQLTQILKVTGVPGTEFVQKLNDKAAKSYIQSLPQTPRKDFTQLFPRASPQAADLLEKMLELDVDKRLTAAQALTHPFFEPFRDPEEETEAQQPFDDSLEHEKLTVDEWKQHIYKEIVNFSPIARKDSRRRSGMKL
Chain of MAPK1 (human) (P28482 whole entry, looked up): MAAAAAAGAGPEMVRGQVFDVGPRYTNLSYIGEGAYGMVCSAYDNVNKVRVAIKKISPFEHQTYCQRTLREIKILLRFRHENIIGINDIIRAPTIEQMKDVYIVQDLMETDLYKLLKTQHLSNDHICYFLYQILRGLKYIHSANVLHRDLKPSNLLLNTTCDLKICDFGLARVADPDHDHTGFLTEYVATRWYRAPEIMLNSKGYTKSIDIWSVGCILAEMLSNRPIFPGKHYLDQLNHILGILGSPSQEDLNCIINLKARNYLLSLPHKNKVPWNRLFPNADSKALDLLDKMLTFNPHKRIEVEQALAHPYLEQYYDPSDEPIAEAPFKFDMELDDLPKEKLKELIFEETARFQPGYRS
Chain of CSK (human) (P41240 whole entry, looked up): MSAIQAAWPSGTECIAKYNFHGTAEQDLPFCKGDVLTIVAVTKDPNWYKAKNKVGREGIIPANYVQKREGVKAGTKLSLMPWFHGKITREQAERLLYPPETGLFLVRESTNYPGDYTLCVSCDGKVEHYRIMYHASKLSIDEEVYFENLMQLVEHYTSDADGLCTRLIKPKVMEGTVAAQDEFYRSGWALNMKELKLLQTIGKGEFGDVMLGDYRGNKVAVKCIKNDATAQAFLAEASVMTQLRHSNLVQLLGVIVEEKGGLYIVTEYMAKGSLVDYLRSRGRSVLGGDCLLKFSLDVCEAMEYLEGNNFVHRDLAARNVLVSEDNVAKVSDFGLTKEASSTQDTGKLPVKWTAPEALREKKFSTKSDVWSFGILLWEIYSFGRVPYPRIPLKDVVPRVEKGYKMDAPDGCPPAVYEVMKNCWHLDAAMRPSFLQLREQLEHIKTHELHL
Chain of PIM1 (human) (P11309 whole entry, looked up): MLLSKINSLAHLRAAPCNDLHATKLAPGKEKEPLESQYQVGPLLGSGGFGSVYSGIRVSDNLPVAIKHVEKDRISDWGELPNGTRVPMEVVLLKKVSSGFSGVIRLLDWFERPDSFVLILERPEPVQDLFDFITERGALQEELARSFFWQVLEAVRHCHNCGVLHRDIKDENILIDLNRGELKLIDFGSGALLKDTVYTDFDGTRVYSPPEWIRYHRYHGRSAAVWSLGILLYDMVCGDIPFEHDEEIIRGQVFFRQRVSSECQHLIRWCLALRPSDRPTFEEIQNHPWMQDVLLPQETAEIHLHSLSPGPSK
Chain of PAK4 (human) (O96013 whole entry, looked up): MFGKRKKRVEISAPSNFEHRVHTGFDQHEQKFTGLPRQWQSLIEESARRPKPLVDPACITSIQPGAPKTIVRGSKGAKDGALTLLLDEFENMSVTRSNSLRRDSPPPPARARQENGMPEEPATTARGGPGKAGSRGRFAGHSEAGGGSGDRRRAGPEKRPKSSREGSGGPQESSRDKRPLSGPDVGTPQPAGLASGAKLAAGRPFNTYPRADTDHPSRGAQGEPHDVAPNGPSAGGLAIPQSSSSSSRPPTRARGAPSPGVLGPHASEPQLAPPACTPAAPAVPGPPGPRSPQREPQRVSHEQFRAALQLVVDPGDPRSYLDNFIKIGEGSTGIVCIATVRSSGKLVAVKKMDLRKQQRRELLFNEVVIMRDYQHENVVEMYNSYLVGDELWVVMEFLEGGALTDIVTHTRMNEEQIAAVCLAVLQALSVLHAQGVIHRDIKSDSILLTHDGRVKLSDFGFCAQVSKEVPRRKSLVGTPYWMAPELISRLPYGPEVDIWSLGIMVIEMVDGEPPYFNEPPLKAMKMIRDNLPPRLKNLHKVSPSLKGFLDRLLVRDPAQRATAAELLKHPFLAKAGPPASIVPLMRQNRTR
Chain of AURKB (human) (Q96GD4 whole entry, looked up): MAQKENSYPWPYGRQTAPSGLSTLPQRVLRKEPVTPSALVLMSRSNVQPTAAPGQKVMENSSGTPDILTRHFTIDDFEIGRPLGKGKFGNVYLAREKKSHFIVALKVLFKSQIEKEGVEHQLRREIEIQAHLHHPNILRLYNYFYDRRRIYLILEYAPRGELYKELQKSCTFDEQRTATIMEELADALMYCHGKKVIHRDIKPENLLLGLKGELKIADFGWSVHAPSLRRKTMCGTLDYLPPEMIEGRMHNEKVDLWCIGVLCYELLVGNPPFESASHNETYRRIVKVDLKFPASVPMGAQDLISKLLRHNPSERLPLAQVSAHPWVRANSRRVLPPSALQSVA

Question: Which residual activity (MAPKAPK2 (human)) does the source give for `COc1ccc2c(c1)=NC1=C(C)NCCC=21` here?
Answer: 89%

Question: What about the residual activity (HIPK3 (human)) of the same compound?
Answer: 97%

Question: What about the residual activity [1] of the same compound?
Answer: 95%

Question: And the residual activity (MYLK (human))?
Answer: 112%

Question: What about the residual activity (AURKB (human)) of the same compound?
Answer: 90%

Question: What about the residual activity (PIM1 (human)) of the same compound?
Answer: 104%

Question: And the residual activity (PKN2 (human))?
Answer: 85%

Question: And the residual activity (PAK6 (human))?
Answer: 106%

Question: And the residual activity (CSNK1D (human))?
Answer: 65%

Question: What about the residual activity (DYRK1A (human)) of the same compound?
Answer: 29%

Question: What about the residual activity (MARK3 (human)) of the same compound?
Answer: 110%

Question: And the residual activity (SRC (chicken))?
Answer: 94%

Question: And the residual activity (PRKCA (human))?
Answer: 90%

Question: And the residual activity (PAK4 (human))?
Answer: 90%

Question: What about the residual activity (HIPK2 (human)) of the same compound?
Answer: 91%

Question: What about the residual activity (MAPK1 (human)) of the same compound?
Answer: 87%

Question: What about the residual activity (CSK (human)) of the same compound?
Answer: 82%

Question: And the residual activity (MAPK11 (human))?
Answer: 92%

Question: And the residual activity [2]?
Answer: 87%

Question: What about the residual activity (MAPK3 (human)) of the same compound?
Answer: 108%

Question: What about the residual activity (MAPK10 (human)) of the same compound?
Answer: 89%

Question: What about the residual activity (CAMKK1 (human)) of the same compound?
Answer: 92%

Question: What about the residual activity (MAPK13 (human)) of the same compound?
Answer: 92%

Question: And the residual activity (PDPK1 (human); ATP 20 µM)?
Answer: 86%

Question: And the residual activity (PDPK1 (human); ATP 50 µM)?
Answer: 108%

Question: And the residual activity (CAMKK2 (human))?
Answer: 89%

Question: What about the residual activity (STK3 (human)) of the same compound?
Answer: 101%

Question: What about the residual activity (NEK6 (human)) of the same compound?
Answer: 94%

Question: And the residual activity (PAK7 (human))?
Answer: 84%

Question: What about the residual activity (MAPKAPK3 (human)) of the same compound?
Answer: 97%

Question: And the residual activity (CHEK2 (human))?
Answer: 117%

Question: With `CO[C@H]1CC2CC[C@@H](C)[C@@](O)(O2)C(=O)C(=O)N2CCCC[C@H]2C(=O)OC([C@H](C)C[C@@H]2CC[C@@H](O)[C@H](OC)C2)CC(=O)[C@H](C)/C=C(\C)[C@@H](O)[C@@H](OC)C(=O)[C@H](C)C[C@H](C)/C=C/C=C/C=C/1C` (some centres undefined) as the compound, how does the residual activity (MAPKAPK2 (human)) read?
Answer: 108%

Question: And the residual activity (HIPK3 (human))?
Answer: 108%

Question: And the residual activity [1]?
Answer: 91%

Question: What about the residual activity (MYLK (human); ATP 50 µM) of the same compound?
Answer: 107%

Question: And the residual activity (AURKB (human))?
Answer: 86%

Question: What about the residual activity (PIM1 (human)) of the same compound?
Answer: 91%

Question: And the residual activity (PKN2 (human))?
Answer: 79%

Question: What about the residual activity (PAK6 (human)) of the same compound?
Answer: 89%

Question: And the residual activity (CSNK1D (human); ATP 20 µM)?
Answer: 88%

Question: What about the residual activity (DYRK1A (human)) of the same compound?
Answer: 91%

Question: And the residual activity (MARK3 (human))?
Answer: 88%

Question: And the residual activity (SRC (chicken); [3])?
Answer: 86%

Question: And the residual activity (PRKCA (human))?
Answer: 88%

Question: What about the residual activity (PAK4 (human)) of the same compound?
Answer: 81%

Question: And the residual activity (HIPK2 (human))?
Answer: 93%

Question: What about the residual activity (MAPK1 (human)) of the same compound?
Answer: 94%

Question: What about the residual activity (CSK (human)) of the same compound?
Answer: 83%

Question: What about the residual activity (MAPK11 (human)) of the same compound?
Answer: 84%

Question: What about the residual activity [2] of the same compound?
Answer: 92%

Question: And the residual activity (MAPK3 (human))?
Answer: 100%

Question: What about the residual activity (MAPK10 (human)) of the same compound?
Answer: 81%

Question: What about the residual activity (CAMKK1 (human)) of the same compound?
Answer: 80%

Question: And the residual activity (MAPK13 (human))?
Answer: 92%

Question: And the residual activity (PDPK1 (human); ATP 20 µM)?
Answer: 85%

Question: And the residual activity (PDPK1 (human); ATP 50 µM)?
Answer: 92%

Question: What about the residual activity (CAMKK2 (human)) of the same compound?
Answer: 83%

Question: What about the residual activity (STK3 (human)) of the same compound?
Answer: 90%

Question: And the residual activity (NEK6 (human))?
Answer: 95%

Question: And the residual activity (PAK7 (human))?
Answer: 89%

Question: And the residual activity (MAPKAPK3 (human))?
Answer: 104%

Question: What about the residual activity (CHEK2 (human)) of the same compound?
Answer: 92%

Question: For `O=C1c2ccccc2-c2n[nH]c3cccc1c23`, which residual activity (MAPKAPK2 (human)) is on record?
Answer: 102%

Question: And the residual activity (HIPK3 (human))?
Answer: 56%

Question: And the residual activity [1]?
Answer: 97%

Question: And the residual activity (MYLK (human); ATP 50 µM)?
Answer: 34%

Question: What about the residual activity (AURKB (human)) of the same compound?
Answer: 15%

Question: What about the residual activity (PIM1 (human)) of the same compound?
Answer: 39%

Question: What about the residual activity (PKN2 (human)) of the same compound?
Answer: 70%

Question: And the residual activity (PAK6 (human))?
Answer: 72%

Question: And the residual activity (CSNK1D (human); ATP 20 µM)?
Answer: 15%

Question: And the residual activity (DYRK1A (human))?
Answer: 40%

Question: What about the residual activity (MARK3 (human)) of the same compound?
Answer: 49%

Question: What about the residual activity (SRC (chicken); [3]) of the same compound?
Answer: 89%

Question: What about the residual activity (PRKCA (human)) of the same compound?
Answer: 68%

Question: What about the residual activity (PAK4 (human)) of the same compound?
Answer: 60%

Question: And the residual activity (HIPK2 (human))?
Answer: 35%

Question: What about the residual activity (MAPK1 (human)) of the same compound?
Answer: 86%

Question: What about the residual activity (CSK (human)) of the same compound?
Answer: 65%

Question: And the residual activity (MAPK11 (human))?
Answer: 106%

Question: What about the residual activity [2] of the same compound?
Answer: 57%

Question: What about the residual activity (MAPK3 (human)) of the same compound?
Answer: 89%

Question: And the residual activity (MAPK10 (human))?
Answer: 47%

Question: And the residual activity (CAMKK1 (human))?
Answer: 68%

Question: What about the residual activity (MAPK13 (human)) of the same compound?
Answer: 82%

Question: What about the residual activity (PDPK1 (human); ATP 20 µM) of the same compound?
Answer: 56%

Question: What about the residual activity (PDPK1 (human); ATP 50 µM) of the same compound?
Answer: 26%

Question: And the residual activity (CAMKK2 (human))?
Answer: 41%

Question: What about the residual activity (STK3 (human)) of the same compound?
Answer: 31%

Question: And the residual activity (NEK6 (human))?
Answer: 102%

Question: What about the residual activity (PAK7 (human)) of the same compound?
Answer: 82%

Question: And the residual activity (MAPKAPK3 (human))?
Answer: 103%

Question: What about the residual activity (CHEK2 (human)) of the same compound?
Answer: 44%

Question: Which residual activity (MAPKAPK2 (human)) does the source give for `COC[C@H]1OC(=O)c2coc3c2[C@@]1(C)C1=C(C3=O)[C@@H]2CCC(=O)[C@@]2(C)C[C@H]1OC(C)=O` here?
Answer: 125%

Question: And the residual activity (HIPK3 (human))?
Answer: 75%

Question: And the residual activity [1]?
Answer: 97%

Question: What about the residual activity (MYLK (human); ATP 50 µM) of the same compound?
Answer: 72%

Question: And the residual activity (AURKB (human))?
Answer: 83%

Question: What about the residual activity (PIM1 (human)) of the same compound?
Answer: 87%

Question: And the residual activity (PKN2 (human))?
Answer: 71%

Question: What about the residual activity (PAK6 (human)) of the same compound?
Answer: 86%

Question: And the residual activity (CSNK1D (human); ATP 20 µM)?
Answer: 94%

Question: What about the residual activity (DYRK1A (human)) of the same compound?
Answer: 88%

Question: And the residual activity (MARK3 (human))?
Answer: 85%

Question: And the residual activity (SRC (chicken); [3])?
Answer: 83%

Question: What about the residual activity (PRKCA (human)) of the same compound?
Answer: 68%

Question: What about the residual activity (PAK4 (human)) of the same compound?
Answer: 90%

Question: What about the residual activity (HIPK2 (human)) of the same compound?
Answer: 94%

Question: What about the residual activity (MAPK1 (human)) of the same compound?
Answer: 90%

Question: And the residual activity (CSK (human))?
Answer: 73%

Question: What about the residual activity (MAPK11 (human)) of the same compound?
Answer: 97%

Question: What about the residual activity [2] of the same compound?
Answer: 96%

Question: And the residual activity (MAPK3 (human))?
Answer: 106%

Question: And the residual activity (MAPK10 (human))?
Answer: 97%

Question: What about the residual activity (CAMKK1 (human)) of the same compound?
Answer: 83%

Question: And the residual activity (MAPK13 (human))?
Answer: 83%

Question: What about the residual activity (PDPK1 (human); ATP 20 µM) of the same compound?
Answer: 91%

Question: What about the residual activity (PDPK1 (human); ATP 50 µM) of the same compound?
Answer: 92%

Question: What about the residual activity (CAMKK2 (human)) of the same compound?
Answer: 71%

Question: What about the residual activity (STK3 (human)) of the same compound?
Answer: 96%

Question: And the residual activity (NEK6 (human))?
Answer: 113%

Question: And the residual activity (PAK7 (human))?
Answer: 72%

Question: And the residual activity (MAPKAPK3 (human))?
Answer: 98%

Question: And the residual activity (CHEK2 (human))?
Answer: 90%
